Assay results from the supplement of paper PMC10307832.

Tests used:
Test in all cases: relative viability (nuclei count vs DMSO), 5 days (fraction); higher = more cells survive
Seliciclib + Decitabine = compound: CC[C@H](CO)Nc1nc(NCc2ccccc2)c2ncn(C(C)C)c2n1 [Seliciclib] + Nc1ncn([C@H]2C[C@H](O)[C@@H](CO)O2)c(=O)n1 [Decitabine] (partner 2 µM)
Procedure, shortened: (§1)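 The day after seeding in 1536-well plates, lung cancer cell lines were treated by pin tool with a single drug, or with a fixed anchor-drug dose together with five library-drug doses (not always all listed) in √10 steps. After 5 days, a combined fix-and-stain solution (final 0.05% Triton X-100, 1% formaldehyde, 1 ug/ml Hoechst) was added. Nuclei counted on 4× images gave relative viability as treated counts over vehicle counts, reported as the median of duplicate plates.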

Seliciclib + Lapatinib = compound: CC[C@H](CO)Nc1nc(NCc2ccccc2)c2ncn(C(C)C)c2n1 [Seliciclib] + CS(=O)(=O)CCNCc1ccc(-c2ccc3ncnc(Nc4ccc(OCc5cccc(F)c5)c(Cl)c4)c3c2)o1 [Lapatinib] (partner 2 µM)
Procedure, shortened: as §1

Seliciclib + Olaparib = compound: CC[C@H](CO)Nc1nc(NCc2ccccc2)c2ncn(C(C)C)c2n1 [Seliciclib] + O=C(c1cc(Cc2n[nH]c(=O)c3ccccc23)ccc1F)N1CCN(C(=O)C2CC2)CC1 [Olaparib] (partner 8 µM)
Procedure, shortened: as §1

Seliciclib + AZD7762 = compound: CC[C@H](CO)Nc1nc(NCc2ccccc2)c2ncn(C(C)C)c2n1 [Seliciclib] + NC(=O)Nc1cc(-c2cccc(F)c2)sc1C(=O)N[C@H]1CCCNC1 [AZD7762] (partner 0.2 µM)
Procedure, shortened: as §1

Cell Line | relative viability (Seliciclib + Decitabine; first compound 0.08 µM) | relative viability (Seliciclib + Decitabine; first compound 0.253 µM) | relative viability (Seliciclib + Decitabine; first compound 0.8 µM) | relative viability (Seliciclib + Decitabine; first compound 2.53 µM) | relative viability (Seliciclib + Decitabine; first compound 8 µM) | relative viability (Seliciclib + Lapatinib; first compound 0.08 µM) | relative viability (Seliciclib + Lapatinib; first compound 0.253 µM) | relative viability (Seliciclib + Lapatinib; first compound 0.8 µM) | relative viability (Seliciclib + Lapatinib; first compound 2.53 µM) | relative viability (Seliciclib + Lapatinib; first compound 8 µM) | relative viability (Seliciclib + Olaparib; first compound 0.08 µM) | relative viability (Seliciclib + Olaparib; first compound 0.253 µM) | relative viability (Seliciclib + Olaparib; first compound 0.8 µM) | relative viability (Seliciclib + Olaparib; first compound 2.53 µM) | relative viability (Seliciclib + Olaparib; first compound 8 µM) | relative viability (Seliciclib + AZD7762; first compound 0.08 µM) | relative viability (Seliciclib + AZD7762; first compound 0.253 µM) | relative viability (Seliciclib + AZD7762; first compound 0.8 µM) | relative viability (Seliciclib + AZD7762; first compound 2.53 µM) | relative viability (Seliciclib + AZD7762; first compound 8 µM)
HCC-44 | 0.946 | 0.996 | 0.99 | 0.927 | 0.906 | 0.972 | 1.08 | 0.981 | 0.933 | 0.925 | 0.978 | 1.03 | 1.01 | 0.966 | 0.973 | 1.02 | 1.05 | 1.12 | 1.12 | 0.944
IA-LM |  |  |  |  |  | 0.537 | 1.07 | 0.719 | 0.977 | 0.82 | 0.8 | 0.973 | 0.879 | 0.72 | 0.745 |  |  |  |  | 
LCLC-103H | 0.781 | 0.727 | 0.755 | 0.735 | 0.644 |  |  |  |  |  | 0.671 | 0.81 | 0.748 | 0.774 | 0.704 | 0.793 | 0.676 | 0.65 | 0.696 | 0.74
NCI-H441 | 0.262 | 0.265 | 0.258 | 0.201 | 0.256 |  |  |  |  |  | 0.525 | 0.451 | 0.562 | 0.466 | 0.448 | 1.1 | 1.09 | 0.979 | 1.28 | 0.994
NCI-H520 | 0.522 | 0.486 | 0.537 | 0.632 | 0.643 | 0.858 | 0.727 | 0.831 | 0.933 | 0.674 | 0.327 | 0.396 | 0.318 | 0.346 | 0.388 |  |  |  |  | 
NCI-H522 | 0.699 | 0.545 | 0.659 | 0.645 | 0.611 |  |  |  |  |  | 0.797 | 0.621 | 0.533 | 0.64 | 0.59 | 0.862 | 0.717 | 0.863 | 0.952 | 0.873
NCI-H661 | 0.552 | 0.597 | 0.549 | 0.511 | 0.435 | 0.522 | 0.463 | 0.473 | 0.452 | 0.391 | 0.674 | 0.768 | 0.695 | 0.724 | 0.674 |  |  |  |  | 
NCI-H1563 |  |  |  |  |  | 1.03 | 0.842 | 0.957 | 0.851 | 0.845 |  |  |  |  |  |  |  |  |  | 
NCI-H1650 | 0.439 | 0.278 | 0.437 | 0.403 | 0.52 | 0.769 | 0.889 | 0.725 | 0.621 | 0.347 | 0.576 | 0.804 | 0.754 | 0.666 | 0.756 |  |  |  |  | 
NCI-H1703 |  |  |  |  |  | 1.07 | 0.861 | 1.03 | 1.14 | 0.846 | 0.467 | 0.54 | 0.528 | 0.439 | 0.352 | 0.132 | 0.147 | 0.135 | 0.126 | 0.111
NCI-H2009 | 0.378 | 0.42 | 0.402 | 0.371 | 0.415 | 0.944 | 1.04 | 0.889 | 0.772 | 0.721 | 0.734 | 0.576 | 0.724 | 0.64 | 0.706 |  |  |  |  | 
NCI-H2023 | 0.217 | 0.216 | 0.203 | 0.267 | 0.248 | 0.932 | 0.991 | 0.732 | 0.406 | 0.451 | 0.517 | 0.472 | 0.449 | 0.536 | 0.366 |  |  |  |  | 
NCI-H2228 |  |  |  |  |  | 1.07 | 1.35 | 1.02 | 1.2 | 0.847 | 0.905 | 0.649 | 0.741 | 0.577 | 0.654 |  |  |  |  | 
SK-LU-1 | 0.614 | 0.544 | 0.649 | 0.614 | 0.542 | 0.847 | 0.971 | 0.812 | 0.775 | 0.666 | 0.411 | 0.543 | 0.478 | 0.404 | 0.34 |  |  |  |  | 
SK-MES-1 | 0.386 | 0.371 | 0.349 | 0.451 | 0.458 | 0.476 | 0.397 | 0.404 | 0.489 | 0.446 | 0.764 | 0.726 | 0.647 | 0.564 | 0.342 |  |  |  |  | 
SW 900 | 0.45 | 0.403 | 0.457 | 0.478 | 0.346 |  |  |  |  |  | 0.769 | 0.89 | 0.79 | 0.721 | 0.437 | 0.537 | 0.616 | 0.704 | 0.647 | 0.559
SW 1573 | 0.497 | 0.515 | 0.474 | 0.408 | 0.663 | 1.09 | 1.06 | 1.02 | 1.1 | 0.869 | 0.473 | 0.487 | 0.527 | 0.471 | 0.425 |  |  |  |  | 
UMC-11 | 0.542 | 0.392 | 0.612 | 0.606 | 0.526 | 1.02 | 0.981 | 1.09 | 0.96 | 0.824 | 0.367 | 0.388 | 0.381 | 0.352 | 0.293 |  |  |  |  | 
